Data published in patent US5196415A, “5-aminocarbonyl-5H-dibenzo[a.d]cyclohepten-5,10-imines for treatment of epilepsy and cocaine addiction” (The United States of America as represented by the …, priority 1992, dated 1993).

Tests used:
[1] = test system: phencyclidine binding sites in the central nervous system; conditions: in words; cited from earlier work
[2] = in words; cited from earlier work
[3] = compared to 17% who received a placebo; cited from earlier work
[4] = in words; cited from earlier work; remark: listed apart in the source
[5] = drug induced motor toxicity, inverted screen test; conditions: mouse, in vivo, ip, mice
Experimental: (§1) Compound 1 was administered intraperotoneally to male CF-1 type mice (20-25 g) with a saline solution carrier. The dose effect behavior was determined by the administration of six different doses of each compound, treating eight mice at each dose. After a period of fifteen minutes, the mice were subjected to corneal application of electroshock (30 mA at 50 Hz for 0.1 s). The ED50 and the 95% confidence intervals of drug which eliminated the tonic-extensor component of the convulsion in 50% of the animals was calculated by the method of Litchfield and Wilcoxon (J. Pharmacol. Exp. Ther. 1949, 96, 99). Drug induced motor toxicity was examined using the inverted screen test which measures the ability of mice to hold onto a screen which has been turned vertical. Control animals will be able to hold on.

[6] = protection against maximal electroshock induced seizures (corneal electroshock, tonic-extensor component); type: in vivo, male CF-1 type mice; conditions: Mus musculus, ip, 0.25 h; mice, intraperitoneal, saline carrier, 15 min before electroshock (30 mA, 50 Hz, 0.1 s)
Experimental: as §1

CC12NC(Cc3ccccc31)c1ccccc12 (single isomer, unassigned) [MK-801]
affinity for phencyclidine binding sites [1]: high affinity
sedative side effects [2]: essentially free of the usual sedative side effects

NC(=O)N1c2ccccc2C=Cc2ccccc21 [Carbamazepine, 5-carbamyl-5H-dibenzo[b,f]azepine]
addicts taking the medication able to abstain from cocaine for a prescribed period [3]: 59%
acute and motor toxicity [4]: low acute and motor toxicity
anticonvulsant activity [4]: good activity
bioavailability [4]: low bioavailability
bone marrow suppression [4]: implicated in bone marrow suppression
toxic overdose reported [4]: only one case of toxic overdose has been reported

NC(=O)C12NC(Cc3ccccc31)c1ccccc12 (centres unmarked) [Compound 1, 5-Aminocarbonyl-10,11-dihydro-5H-dibenzo[a,d]cyclohepten-5,10-imine]
TD50 ([5]; intraperitoneal, inverted screen test): 50 to 55 mg/kg
selectivity ratio ([5]; motor toxicity TD50 versus maximal electroshock ED50, read-out: therapeutic index (TI)): 5.6 to 6.2
ED50 [6]: 8.9 mg/kg
